Data reported in PMC10893631, “Receptor-based pharmacophore modeling, molecular docking, synthesis and biological evaluation of novel VEGFR-2, FGFR-1, and BRAF multi-kinase inhibitors” (BMC Chemistry, 2024).
Like-named read-outs stand apart in the source and are kept apart here.

Columns and labels:
NCI-H522 = assay: NCI SRB growth inhibition (single dose 10 µM / five-dose); type: cell-based, human; conditions: Homo sapiens; for inhibition at 10 µM: NCI-H522 (Non-small cell lung cancer), read-out: GI%; for GI50: NCI-H522, Non-small cell lung cancer, five-dose
Method in brief: (§1)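 Seeding varied with cell doubling time (5000–40,000 cells/well). Dilutions were 10-fold or ½ log, five levels in total. Sulforhodamine B staining (0.4% w/v, 10 min, room temperature) of TCA-fixed cells measured growth.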

HCT-116 = assay: as above; type: cell-based, human; conditions: Homo sapiens, HCT-116; for inhibition at 10 µM: read-out: GI%
Method in brief: as §1

HL-60(TB) = assay: as above; type: cell-based, human; conditions: Homo sapiens; for inhibition at 10 µM: HL-60(TB) (Leukemia), read-out: GI%; for GI50: HL-60(TB), Leukemia, five-dose
Method in brief: as §1

PC-3 = assay: as above; type: cell-based, human; conditions: Homo sapiens; for inhibition at 10 µM: PC-3 (Prostate cancer), read-out: GI%
Method in brief: as §1

U251 = assay: as above; type: cell-based, human; conditions: Homo sapiens, U-251; for inhibition at 10 µM: U251 (CNS cancer), read-out: GI%; for GI50: U251, CNS cancer, five-dose
Method in brief: as §1

UO-31 = assay: as above; type: cell-based, human; conditions: Homo sapiens; for inhibition at 10 µM: UO-31 (Renal cancer), read-out: GI%; for GI50: UO-31, Renal cancer, five-dose
Method in brief: as §1

K-562 = assay: as above; type: cell-based, human; conditions: Homo sapiens, K562; for inhibition at 10 µM: K-562 (Leukemia), read-out: GI%; for GI50: K-562, Leukemia, five-dose
Method in brief: as §1

DU-145 = assay: as above; type: cell-based, human; conditions: Homo sapiens; for inhibition at 10 µM: DU-145 (Prostate cancer), read-out: GI%; for GI50: DU-145, Prostate cancer, five-dose
Method in brief: as §1

VEGFR-2 = target: T1, VEGFR-2 (Homo sapiens, UniProt P35968); assay: VEGFR-2 kinase assay kit (BPS), Kinase-Glo Max luminescence; type: biochemical; conditions: VEGFR-2, single dose 10 µM, duplicate, mean ± SD
T1 construct: purchased BPS Biosciences 40325
Method: 2. Biochemical kinase assay procedure
The inhibitory activity against different kinases was determined using kinase kits […]
from BPS Biosciences and kinase-Glo Max luminescence kinase assay kit (Promega).
The assay was carried out according to the protocol provided by the manufacturer. A stock solution of the synthesized derivatives in 100% DMSO was prepared. Subsequently, the compounds were diluted to 10% DMSO.
A master mixture was prepared according to the number of wells. For VEGFR-2 and FGFR-1 biochemical assays each well include 6 μl of 5x Kinase Buffer 1 + 1 μl of 500 μM ATP + 1 μl of PTK Substrate (Poly-Glu,Tyr 4:1) (10 mg/ml) + 17 μl of distilled water. For BRAF assay each well include 6 μl of 5x Kinase Buffer 1 + 1 μl of ATP (500 μM) + 10 μl of 5X Raf substrate + 8 μl of distilled water. 1x Kinase buffer 1 was prepared by mixing 600 μl of 5x Kinase Buffer 1 with 2400 μl water to give 3 mL. Kinases were thawed on ice and were diluted with 1x Kinase Buffer 1.
To start the biochemical reaction, 25 µL of the master mixture was added to each well in 96 well plate. 5 µL of 10% DMSO was added to positive control wells and blank wells. 5 µL of diluted inhibitor was added to each well labelled with the test inhibitor so that the final concentration of DMSO is 1% in all reactions. Then 20 µL of (1 ng / μl) in case of VEGFR-2 and FGFR-1 or (2.5 ng/μl) in case of BRAF in 1x kinase buffer was added to positive control wells and wells labelled with the inhibitor, while 20 µL 1x kinase buffer 1 was added to the […]
The plate was incubated at 30 °C for 45 min. Subsequently, 50 μl of Kinase-Glo Max luminescence reagent was added to each well and the plate was covered with aluminum foil and incubated at room temperature 15 min. Finally, the luminescence was recorded using multimode microplate reader. Kinase activity assays were performed in duplicate at each […]
The luminescence data were analyzed as follows. The difference between luminescence intensities in the absence of kinase (Lut) and in the presence of kinase (Luc) was defined as 100 % activity (Lut – Luc). Using luminescence signal (Lu) in the presence of the compound, % activity was calculated as: % activity = {(Lut - Lu)/(Lut - Luc)}×100%. The […]
concentration of the test compounds required to reduce the kinase activity by 50% was determined from dose-response curves and recorded as their IC50. […]

[1] = test system: NCI panel of 60 tumor cell lines; assay: NCI SRB growth inhibition, whole panel mean (single dose 10 µM / five-dose); type: cell-based, human; conditions: Homo sapiens; for GI50: mean over NCI cancer cell lines, five-dose
Method: Screening of cytotoxic activity against a panel of sixty human tumor cell lines The selected compounds by NCI were evaluated for their anticancer activity in a two- stage process. […] Then, the output from the single dose screen is reported as a mean graph. […] Assay protocol. […] For a typical screening experiment, cells are inoculated into 96 well microtiter plates in 100 µL at plating densities ranging from 5000 to 40,000 cells/well depending on the doubling time of individual cell lines. […] After 24 h, two plates of each cell line are fixed in situ with TCA, to represent a measurement of the cell population for each cell line at the time of drug addition (Tz). The experimental drugs are solubilized in dimethyl sulfoxide at 400-fold the desired final maximum test concentration and stored frozen prior to use. At the time of drug addition, an aliquot of frozen concentrate is thawed and diluted to twice the desired final maximum test concentration with complete medium containing 50 µg/mL gentamicin. Additional four, 10-fold or ½ log serial dilutions are made to provide a total of five drug concentrations plus control. Aliquots of 100 mL of these different drug dilutions are added to the appropriate microtiter wells already containing […] of medium, resulting in the required final drug concentrations. […] For adherent cells, the assay is terminated by the addition of cold TCA. […] The supernatant is discarded, and the plates are washed five times with tap water and air dried. Sulforhodamine B (SRB) solution ([…]) at 0.4% (w/v) in 1% acetic acid is added to each well, and plates are incubated for 10 min at room temperature. After staining, unbound dye is removed by washing five times with 1% acetic acid and the plates are air dried. […] Using the seven absorbance measurements [time zero, (Tz), control growth, (C), and test growth in the presence of drug at the five concentration levels (Ti)], the percentage growth is calculated at each of the drug concentrations levels. Percentage growth inhibition is calculated as: [(Ti Tz)/(C–Tz)] x 100 for concentrations for which Ti>/=Tz and [(Ti-Tz)/Tz] x 100 for concentrations for which Ti < Tz. Three dose response parameters are calculated for each experimental agent. […] The drug concentration resulting in total growth inhibition (TGI) is calculated from Ti = Tz. […] Values are calculated for each of these three parameters if the level of activity is reached; however, if the effect is not reached or is exceeded, the value for that parameter is expressed as greater or less than the maximum or minimum concentration tested.

[2] = mean over NCI 60 cell lines, > 100% = lethal effect, read-out: mean growth inhibition % (GI%)
[3] = mean over NCI panel of 60 tumor cell lines, read-out: Mean growth inhibition %

T1 sequence (P35968 20-1356): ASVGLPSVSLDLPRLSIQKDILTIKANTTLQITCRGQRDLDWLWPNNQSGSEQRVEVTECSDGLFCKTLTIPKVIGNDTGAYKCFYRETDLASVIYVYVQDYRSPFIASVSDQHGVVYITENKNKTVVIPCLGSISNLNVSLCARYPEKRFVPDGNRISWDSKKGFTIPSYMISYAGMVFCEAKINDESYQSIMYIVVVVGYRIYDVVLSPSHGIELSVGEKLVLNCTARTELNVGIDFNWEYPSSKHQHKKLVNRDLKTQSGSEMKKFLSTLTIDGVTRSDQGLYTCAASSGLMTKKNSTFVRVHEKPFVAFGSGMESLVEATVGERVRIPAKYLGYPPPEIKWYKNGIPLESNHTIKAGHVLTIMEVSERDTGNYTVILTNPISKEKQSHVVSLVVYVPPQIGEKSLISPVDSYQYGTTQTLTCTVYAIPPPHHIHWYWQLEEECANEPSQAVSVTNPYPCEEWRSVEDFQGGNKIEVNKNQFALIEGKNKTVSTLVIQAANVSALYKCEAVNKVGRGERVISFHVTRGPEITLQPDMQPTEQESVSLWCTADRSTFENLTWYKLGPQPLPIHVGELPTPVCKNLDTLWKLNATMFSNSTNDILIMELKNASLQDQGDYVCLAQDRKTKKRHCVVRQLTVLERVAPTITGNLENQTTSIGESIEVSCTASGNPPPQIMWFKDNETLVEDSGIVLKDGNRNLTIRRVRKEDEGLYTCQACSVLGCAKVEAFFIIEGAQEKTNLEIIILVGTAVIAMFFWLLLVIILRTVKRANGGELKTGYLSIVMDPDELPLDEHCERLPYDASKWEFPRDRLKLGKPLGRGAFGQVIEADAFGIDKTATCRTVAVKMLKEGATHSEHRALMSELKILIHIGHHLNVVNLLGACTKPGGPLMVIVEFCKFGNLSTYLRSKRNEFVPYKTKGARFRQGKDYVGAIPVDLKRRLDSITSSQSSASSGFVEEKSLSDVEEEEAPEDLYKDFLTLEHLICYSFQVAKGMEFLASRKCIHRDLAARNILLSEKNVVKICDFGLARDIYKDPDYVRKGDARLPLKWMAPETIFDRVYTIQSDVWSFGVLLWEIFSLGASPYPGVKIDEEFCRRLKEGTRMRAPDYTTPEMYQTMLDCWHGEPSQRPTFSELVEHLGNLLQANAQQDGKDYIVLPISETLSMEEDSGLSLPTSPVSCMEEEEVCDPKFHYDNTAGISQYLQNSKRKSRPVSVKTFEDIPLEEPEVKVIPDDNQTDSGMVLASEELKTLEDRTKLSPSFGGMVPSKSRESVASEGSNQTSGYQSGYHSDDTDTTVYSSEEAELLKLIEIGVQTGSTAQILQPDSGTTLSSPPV

Row | Compound | inhibition at 10 µM (NCI-H522) [%] | GI50 (NCI-H522) [µM] | GI50 (HCT-116) [µM] | inhibition at 10 µM (HCT-116) [%] | inhibition at 10 µM (HL-60(TB)) [%] | GI50 (HL-60(TB)) [µM] | inhibition at 10 µM (PC-3) [%] | inhibition at 10 µM (U251) [%] | GI50 (U251) [µM] | inhibition at 10 µM (UO-31) [%] | GI50 (UO-31) [µM] | inhibition at 10 µM (K-562) [%] | GI50 (K-562) [µM] | inhibition at 10 µM (DU-145) [%] | GI50 (DU-145) [µM] | inhibition at 10 µM (VEGFR-2) [%] | inhibition at 10 µM [1, 2] [%] | GI50 [1] [µM] | inhibition at 10 µM [1, 3] [%] | GI50 (PC-3; PC-3, Prostate cancer, five-dose) [µM]
1 | COc1ccc(-c2nc3cc(C(=O)NN=Cc4cccc(OC)c4)ccc3[nH]2)cc1 [8j, N'-(3-Methoxybenzylidene)-2-(4-methoxyphenyl)-1H-benzo[d]imidazole-5-carbohydrazide] | 89.7 | 3.3 | 2.99 | > 100 | 30.4 | 36.5 | > 100 | > 100 | 2.18 | 98.9 | 1.78 | 88.1 | 6.92 | > 100 | 3.28 | 15.7 ± 1.41 | 100 | 5.24 | > 100 | –
2 | COc1ccc(-c2nc3cc(C(=O)NN=Cc4cccc(OC)c4O)ccc3[nH]2)cc1 [8k, N'-(2-Hydroxy-3-methoxybenzylidene)-2-(4-methoxyphenyl)-1H-benzo[d]imidazole-5-carbohydrazide] | > 100 | 2.98 | 2.9 | > 100 | > 100 | 7.66 | 87.9 | 97.3 | 2.17 | 83.2 | 3.34 | > 100 | 3.74 | 85.1 | 5.06 | 69.5 ± 4.37 | > 100 | 7.7 | > 100 | –
3 | COc1ccc(-c2nc3cc(C(=O)NN=Cc4ccc(OC)c(O)c4)ccc3[nH]2)cc1 [8l, N'-(3-Hydroxy-4-methoxybenzylidene)-2-(4-methoxyphenyl)-1H-benzo[d]imidazole-5-carbohydrazide] | 38.2 | – | – | 43.8 | 52.2 | – | 51.2 | 44.8 | – | 9.13 | – | 48.5 | – | 27.9 | – | 50.6 ± 5.29 | 34.4 | – | 34.4 | –
4 | COc1ccc(-c2nc3cc(C(=O)NN=Cc4cc(OC)ccc4OC)ccc3[nH]2)cc1 [8m, N'-(2,5-Dimethoxybenzylidene)-2-(4-methoxyphenyl)-1H-benzo[d]imidazole-5-carbohydrazide] | 21.3 | – | – | 22.3 | 18.8 | – | 13.6 | 9.71 | – | 9.12 | – | 22.8 | – | < 5 | – | 6.67 ± 0.08 | 10.9 | – | 10.9 | –
5 | COc1ccc(-c2nc3cc(C(=O)NN=Cc4cc(OC)c(OC)c(OC)c4)ccc3[nH]2)cc1 [8n, 2-(4-Methoxyphenyl)-N'-(3,4,5-trimethoxybenzylidene)-1H-benzo[d]imidazole-5-carbohydrazide] | 96.2 | – | – | 23.4 | < 5 | – | 12.9 | 15.3 | – | 21.8 | – | 23.7 | – | < 5 | – | 20.8 ± 1.78 | 13.6 | – | 13.6 | –
6 | O=C(NN=Cc1ccccc1O)c1ccc2[nH]c(-c3ccc(Cl)cc3)nc2c1 [8o, 2-(4-Chlorophenyl)-N'-(2-hydroxybenzylidene)-1H-benzo[d]imidazole-5-carbohydrazide] | > 100 | 0.26 | 1.08 | 98.4 | 47.1 | 0.31 | 78.5 | > 100 | 0.83 | > 100 | 0.31 | 85.5 | 0.15 | > 100 | 1.36 | 22.3 ± 1.95 | > 100 | 5.44 | > 100 | > 38.8
7 | O=C(NN=Cc1cccc(O)c1)c1ccc2[nH]c(-c3ccc(Cl)cc3)nc2c1 [8p, 2-(4-Chlorophenyl)-N'-(3-hydroxybenzylidene)-1H-benzo[d]imidazole-5-carbohydrazide] | 55.8 | – | – | 37.7 | < 5 | – | 48.8 | 75.5 | – | 14.9 | – | 49.9 | – | < 5 | – | 22.3 ± 0.86 | 25.4 | – | 25.4 | –
8 | COc1cccc(C=NNC(=O)c2ccc3[nH]c(-c4ccc(Cl)cc4)nc3c2)c1 [8q, 2-(4-Chlorophenyl)-N'-(3-methoxybenzylidene)-1H-benzo[d]imidazole-5-carbohydrazide] | > 100 | 2.26 | 3.06 | > 100 | 50.7 | 19.5 | > 100 | > 100 | 2.03 | 81.7 | 3.46 | 98.1 | 3.14 | > 100 | 2.04 | 21.5 ± 1.54 | > 100 | 5.4 | > 100 | –
